# In patent US8980226B2, “Aerosolized fosfomycin/aminoglycoside combination for the treatment of bacterial respiratory infections” (Gilead Sciences, Inc., priority 2004, dated 2015):
# Test system: P. aeruginosa ATCC 27853
# Experiment: MBC/MIC, broth microdilution
# Type: cell-based
# Conditions: aminoglycoside alone
# Protocol: “Minimal bactericidal concentration (MBC)” means the lowest concentration of antibiotic that results in ≧3 Log10 of bacterial killing.
# The MICs of amikacin, arbekacin, dibekacin, gentamicin, kanamycin, netilimicin, neomycin, streptomycin, and tobramycin alone were determined for P. aeruginosa ATCC 27853 by the broth-microdilution method according to NCCLS standards (NCCLS, 2003). E. coli ATCC 25922 and S. aureus ATCC 29213 were used as quality control stains. Bacterial strains were streaked onto blood agar plates, and incubated at 35° C. for 18 hours. Two to three bacterial colonies from the overnight cultures were inoculated into 3 mL of sterile normal saline, vortexed briefly, and adjusted to a 0.5 McFarland standard (NCCLS, 2003). The bacterial suspension was diluted 1:100 in cation-adjusted Mueller-Hinton broth (hereafter referred to as CAMHB). Fifty microliters of bacterial inoculum (approximately 2×10^5 CFU/mL) was pipeted into individual wells of 96-well plates containing 50 μl of CAMHB (Remel, Lenexa, Kanas) supplemented with 2-fold dilutions of antibiotics ranging in concentration from 0.125 μg/mL to 128 μg/mL. The MIC was defined as the lowest concentration of antibiotic (s) that prevented visible growth after incubation at 35° C. for 18-24 hours.
# The MBCs of fosfomycin, amikacin, arbekacin, dibikacin, gentamicin, kanamycin B, netilimicin, neomycin, streptomycin, or tobramycin alone for P. aeruginosa ATCC 27853, E. coli ATCC 25922, and S. aureus ATCC 29213 were determined by the broth microdilution method according to NCCLS standards (NCCLS, 1999). Bacterial strains were streaked onto blood agar plates and incubated at 35° C. for 18-24 hours. Two to three bacterial colonies from the overnight cultures were inoculated into 3 mL of sterile normal saline, vortexed briefly, and adjusted to a 0.5 McFarland standard (NCCLS, 2003). Fifty microliters of bacterial inoculum (approximately 2×10^5 CFU/mL) was pipeted into individual wells of 96-well plates containing 50 μl of CAMHB (Remel, Lenexa, Kanas) supplemented with 2-fold dilutions of antibiotics ranging in concentration from 0.125 μg/mL to 128 μg/mL. Plates were incubated at 35° C. for 18-24 hours and MIC determined as described in Example 5, Method C. The contents of wells showing no growth (MIC and above) were mixed with a pipetor and duplicate 10 μl samples spread onto blood agar plates. Culture plates were incubated at 35° C. for 18-24 hours and the number of bacterial colonies on each plate enumerated manually. Rejection values were determined by NCCLS methods which considers the final inoculum size, single or double sampling, pipetting error, and the Poisson distribution of sample responses (NCCLS, 1999). […] The MBC was defined as the ≧3 Log10 decrease in CFU/mL of the original inoculum as described by NCCLS standards (NCCLS, 1999). The MBC/MIC ratios were calculated by dividing the MBC by the MIC.
row,Molecule,MBC/MIC Aminoglycoside
1,"NCC[C@H](O)C(=O)N[C@@H]1C[C@H](N)[C@@H](O[C@H]2O[C@H](CN)CC[C@H]2N)[C@H](O)[C@H]1O[C@H]1O[C@H](CO)[C@@H](O)[C@H](N)[C@H]1O [Arbekacin, arbekacin]",1
2,"CCN[C@@H]1C[C@H](N)[C@@H](O[C@H]2OC(CN)=CC[C@H]2N)[C@H](O)[C@H]1O[C@H]1OC[C@](C)(O)[C@H](NC)[C@H]1O [Netilimicin, netilmicin]",1
3,"NCC[C@H](O)C(=O)N[C@@H]1C[C@H](N)[C@@H](O[C@H]2O[C@H](CN)[C@@H](O)[C@H](O)[C@H]2O)[C@H](O)[C@H]1O[C@H]1O[C@H](CO)[C@@H](O)[C@H](N)[C@H]1O [Amikacin, amikacin]",2
4,gentamicin,2
5,neomycin,2
6,"NC[C@@H]1CC[C@@H](N)[C@@H](O[C@H]2[C@H](O)[C@@H](O[C@H]3O[C@H](CO)[C@@H](O)[C@H](N)[C@H]3O)[C@H](N)C[C@@H]2N)O1 [Dibekacin, dibekacin]",1
7,"[H]/N=C(/N)N[C@H]1[C@H](O)[C@@H](O)[C@H](O[C@@H]2O[C@@H](C)[C@](O)(C=O)[C@H]2O[C@@H]2O[C@@H](CO)[C@H](O)[C@@H](O)[C@@H]2NC)[C@@H](N/C(N)=N\[H])[C@@H]1O [Streptomycin, streptomycin]",4
